# Data reported in paper PMC9179981 (International Journal of Molecular Sciences, 2022).
# Like-named read-outs stand apart in the source and are kept apart here.
# What was measured:
# [1] = target: T1, BuChE (EC 3.1.1.8, equine serum) (Equus caballus, UniProt P81908); experiment: biochemical; format: biochemical
# T1 construct: purchased Sigma Aldrich (Steinheim, Germany); host or cells: equine serum
# Procedure: (§1) Ellman’s assay was used to assess the inhibitory activity of the newly synthesized compounds towards AChE and BuChE. […] An evaluation of the inhibitory potency towards AChE (EC 3.1.1.7, Electrophorus electricus) and BuChE (EC 3.1.1.8, equine serum) was performed using a modified spectrophotometric Ellman’s method. All necessary reagents for the study were purchased from Sigma Aldrich (Steinheim, Germany). […] The phosphate buffer (pH 8.0) was used as a solvent for reagents. The assay protocol included 14 µL of the tested compound in the nine different concentrations, and 40 µL of substrate acetylthiocholine (ATI) in concentration 1mM or 2mM for AChE and BuChE, respectively. Next, 76 µL of 0.4 mg/mL 5,5′-dithio-bis(2-nitrobenzoic) acid (DTNB) was added to the mixture. In the end, to start the reaction 10 µL of AChE (2U/mL) or BuChE (4U/mL) was added and the solution was mixed and incubated for 10 min. at 37 °C. As a control, instead of the tested compound, we used PBS. […] The experiments were performed independently and in triplicate. Data were expressed as mean ± SD.
# [2] = target: T2, AChE (EC 3.1.1.7, Electrophorus electricus) (Electrophorus electricus, UniProt O42275); experiment: biochemical
# T2 construct: purchased Sigma Aldrich (Steinheim, Germany)
# T2 sequence (O42275 24-633): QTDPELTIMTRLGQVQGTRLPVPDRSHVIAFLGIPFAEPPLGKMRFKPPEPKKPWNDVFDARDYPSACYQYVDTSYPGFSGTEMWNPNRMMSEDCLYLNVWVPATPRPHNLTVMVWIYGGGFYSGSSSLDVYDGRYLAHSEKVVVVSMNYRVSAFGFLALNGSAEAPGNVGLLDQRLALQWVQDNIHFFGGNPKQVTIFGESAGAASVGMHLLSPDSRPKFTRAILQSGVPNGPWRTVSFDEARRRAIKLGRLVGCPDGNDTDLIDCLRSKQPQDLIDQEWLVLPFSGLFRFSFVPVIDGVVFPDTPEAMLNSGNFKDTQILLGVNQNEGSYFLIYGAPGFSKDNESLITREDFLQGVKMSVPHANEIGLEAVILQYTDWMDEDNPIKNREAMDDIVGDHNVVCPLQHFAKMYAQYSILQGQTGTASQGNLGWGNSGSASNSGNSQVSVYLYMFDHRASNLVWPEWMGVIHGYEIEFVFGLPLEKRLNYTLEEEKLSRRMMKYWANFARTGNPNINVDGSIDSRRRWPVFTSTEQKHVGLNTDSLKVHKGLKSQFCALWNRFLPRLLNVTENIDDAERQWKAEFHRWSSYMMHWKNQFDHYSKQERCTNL
# Procedure: as §1
# in vitro = settings: human
# [3] = ORAC-FL antioxidant activity assay; settings: Trolox equivalents, mean ± SD; compounds 1–13 µM, tacrine 1–10 µM; pH 7.4
# BuChE = target: T3, BuChE (Equus caballus, UniProt P81908); experiment: Kinetic characterization of BuChE inhibition (Lineweaver-Burk); format: biochemical, equine; settings: Lineweaver-Burk plot; inhibitor 0, 150, 200, 250 nM
# T3 construct: purchased Sigma Aldrich (Steinheim, Germany); host or cells: equine serum
# T3 sequence (P81908 whole entry): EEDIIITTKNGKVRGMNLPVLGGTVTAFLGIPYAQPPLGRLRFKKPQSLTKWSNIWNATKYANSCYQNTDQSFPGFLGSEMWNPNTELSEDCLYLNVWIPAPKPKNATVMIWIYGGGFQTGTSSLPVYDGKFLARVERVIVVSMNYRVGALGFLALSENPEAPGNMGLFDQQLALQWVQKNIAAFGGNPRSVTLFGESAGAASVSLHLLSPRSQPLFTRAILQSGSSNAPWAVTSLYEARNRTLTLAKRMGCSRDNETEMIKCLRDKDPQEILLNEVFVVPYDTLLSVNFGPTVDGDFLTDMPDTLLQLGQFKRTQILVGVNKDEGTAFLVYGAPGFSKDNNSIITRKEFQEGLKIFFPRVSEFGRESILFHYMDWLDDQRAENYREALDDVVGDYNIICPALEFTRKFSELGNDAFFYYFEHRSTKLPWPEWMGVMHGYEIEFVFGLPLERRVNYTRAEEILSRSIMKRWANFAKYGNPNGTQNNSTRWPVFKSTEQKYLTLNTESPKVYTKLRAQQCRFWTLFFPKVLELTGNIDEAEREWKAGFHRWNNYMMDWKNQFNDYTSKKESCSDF
# Procedure: Lineweaver–Burk plots were prepared to reveal the type of inhibition. The experiments were performed in triplicate.
# The protocol of the kinetic study was similar to the previous inhibition study. A phosphate buffer (pH 8.0) was used as the solvent for all reagents. The tested medium consisted of 76 µL DTNB (0.4 mg/mL), 40 µL substrate (ATI) at chosen concentrations (35–350 µM), 10 µL of AChE (2 U/mL) or BuChE (4 U/mL), and 14 µL of the inhibitor. […] For the BuChE kinetic analysis, we used four concentrations of the 3b derivative (0, 150, 200, 250 nM). Changes in absorbance were measured at 412 nm. All experiments were conducted independently and in triplicate. To estimate the type of inhibition, reciprocal plots of 1/V versus 1/[S] were created.
# AChE = target: T4, AChE (Electrophorus electricus, UniProt O42275); experiment: Kinetic characterization of AChE inhibition (Lineweaver-Burk); format: biochemical; settings: Lineweaver-Burk plot; inhibitor 0, 200, 400, 800 nM
# T4 construct: purchased Sigma Aldrich (Steinheim, Germany)
# T4 sequence (O42275 24-633): as the sequence (O42275 24-633) above
# Procedure: […]. Lineweaver–Burk plots were prepared to reveal the type of inhibition. The experiments were performed in triplicate.
# . The protocol of the kinetic study was similar to the previous inhibition study. A phosphate buffer (pH 8.0) was used as the solvent for all reagents. […]. For the BuChE kinetic analysis, we used four concentrations of the 3b derivative (0, 150, 200, 250 nM). Changes in absorbance were measured at 412 nm. All experiments were conducted independently and in triplicate. […]
# [4] = Ellman's method, pH 8.0, 37 °C, mean ± SD of three independent experiments
# [5] = Ellman's method, pH 8.0, 37 °C, mean ± SD of three independent experiments, read-out: AChE IC50 ± SD
# T1 sequence (P81908 whole entry): as the sequence (P81908 whole entry) above
compound,measurement,setting,value
"c1ccc2c(NCCCCCCCNc3c4c(nc5ccccc35)CCCC4)c3c(nc2c1)CCCC3 [Bistacrine, bistacrine, reference compound]",Selectivity for BuChE,[1],1.79
same,IC50,"[1]; pH 8, read-out: BuChE IC50 ± SD",226 ± 30.4 nM
same,Selectivity for AChE,[2],0.56
same,IC50,"[2]; pH 8, read-out: AChE IC50 ± SD",405 ± 28.6 nM
"Cl.O=C(NCCNc1c2c(nc3ccccc13)CCC2)c1c2ccccc2nc2ccccc12 [Compound 3a, N-[2-({1H,2H,3H-cyclopenta[b]quinolin-9-yl}amino)ethyl]acridine-9-carboxamide hydrochloride]",IC50,[1]; [4],540 ± 66.9 nM
same,Selectivity for BuChE,[1]; IC50(AChE)/IC50(BuChE),15.96
same,IC50,[2]; [5],8620 ± 606 nM
same,Selectivity for AChE,[2]; IC50(BuChE)/IC50(AChE),0.063
"Cl.O=C(NCCCNc1c2c(nc3ccccc13)CCC2)c1c2ccccc2nc2ccccc12 [Compound 3b, N-[3-({1H,2H,3H-cyclopenta[b]quinolin-9-yl}amino)propyl]acridine-9-carboxamide hydrochloride]",IC50 at 24 h,in vitro,32000 ± 2050 nM
same,ORAC (TE),[3],0.4614 ± 0.056 TE
same,Type of BuChE inhibition,BuChE,mixed type of inhibition
same,IC50,[1]; [4],104 ± 7.63 nM
same,IC50,[2],272 ± 35.1 nM
"Cl.O=C(NCCCCNc1c2c(nc3ccccc13)CCC2)c1c2ccccc2nc2ccccc12 [Compound 3c, N-[4-({1H,2H,3H-cyclopenta[b]quinolin-9-yl}amino)butyl]acridine-9-carboxamide hydrochloride]",IC50,[1]; [4],200 ± 18.1 nM
same,Selectivity for BuChE,[1]; IC50(AChE)/IC50(BuChE),1.36
same,IC50,[2]; [5],273 ± 22.1 nM
same,Selectivity for AChE,[2]; IC50(BuChE)/IC50(AChE),0.73
"Cl.O=C(NCCCCCNc1c2c(nc3ccccc13)CCC2)c1c2ccccc2nc2ccccc12 [Compound 3d, N-[5-({1H,2H,3H-cyclopenta[b]quinolin-9-yl}amino)pentyl]acridine-9-carboxamide hydrochloride]",IC50,[1]; [4],173 ± 18.9 nM
same,Selectivity for BuChE,[1]; IC50(AChE)/IC50(BuChE),23.39
same,Selectivity for AChE,[2]; IC50(BuChE)/IC50(AChE),0.043
"Cl.O=C(NCCCCCCNc1c2c(nc3ccccc13)CCC2)c1c2ccccc2nc2ccccc12 [Compound 3e, N-[6-({1H,2H,3H-cyclopenta[b]quinolin-9-yl}amino)hexyl]acridine-9-carboxamide hydrochloride]",Selectivity for BuChE,[1]; IC50(AChE)/IC50(BuChE),2.02
same,IC50,[2]; [5],395 ± 36.1 nM
same,Selectivity for AChE,[2]; IC50(BuChE)/IC50(AChE),0.49
"Cl.O=C(NCCCCCCCNc1c2c(nc3ccccc13)CCC2)c1c2ccccc2nc2ccccc12 [Compound 3f, N-[7-({1H,2H,3H-cyclopenta[b]quinolin-9-yl}amino)heptyl]acridine-9-carboxamide hydrochloride]",IC50 at 24 h,in vitro; human hepatic stellate cells (HSCs),49800 ± 4360 nM
same,ORAC (TE),[3],0.3254 ± 0.014 TE
same,Type of AChE inhibition,AChE,mixed type of inhibition
same,IC50,[1]; [4],204 ± 16 nM
same,Selectivity for BuChE,[1]; IC50(AChE)/IC50(BuChE),0.56
same,IC50,[2]; [5],113 ± 7.14 nM
same,Selectivity for AChE,[2]; IC50(BuChE)/IC50(AChE),1.79
"Cl.O=C(NCCCCCCCCNc1c2c(nc3ccccc13)CCC2)c1c2ccccc2nc2ccccc12 [Compound 3g, N-[8-({1H,2H,3H-cyclopenta[b]quinolin-9-yl}amino)octyl]acridine-9-carboxamide hydrochloride]",IC50,[1]; [4],178 ± 17 nM
same,Selectivity for BuChE,[1]; IC50(AChE)/IC50(BuChE),3.95
same,IC50,[2]; [5],701 ± 67.1 nM
same,Selectivity for AChE,[2]; IC50(BuChE)/IC50(AChE),0.25
"Cl.O=C(NCCCCCCCCCNc1c2c(nc3ccccc13)CCC2)c1c2ccccc2nc2ccccc12 [Compound 3h, N-[9-({1H,2H,3H-cyclopenta[b]quinolin-9-yl}amino)nonyl]acridine-9-carboxamide hydrochloride]",Selectivity for BuChE,[1]; IC50(AChE)/IC50(BuChE),2.95
same,IC50,[2]; [5],669 ± 83.4 nM
same,Selectivity for AChE,[2]; IC50(BuChE)/IC50(AChE),0.34
"Nc1c2c(nc3ccccc13)CCCC2 [Tacrine, tacrine, reference compound]",ORAC (TE),[3],0.0132 ± 0.009 TE
